Measurements reported in PMC10987949, “Inhibition of HIV-1 release by ADAM metalloproteinase inhibitors” (Frontiers in Microbiology, 2024).
Entries after “also recorded” stand apart in the source; their conditions may differ.

Columns and labels:
CD62L shedding [1] = test: Soluble CD62L ELISA, anti-CD3/PHA stimulated PBMC or CD4 T cells; assay type: cell-based, human; details: for inhibition at 10 µM: Homo sapiens, 10 μM compound, stimulated cells; for inhibition at 10 µM / effect on CD62L shedding / soluble CD62L: ELISA; for effect on CD62L shedding / soluble CD62L: stimulated PBMC or CD4 T cells
Summary of the method: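 Healthy-donor PBMC stimulated with okt3 anti-CD3 (~0.2 μg/mL final) plus IL-2 (20 U/mL final) in presence of compound. Soluble CD62L in supernatants measured by ELISA; viability checked by AO/PI staining.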

CD62L shedding [2] = test: Soluble CD62L ELISA, unstimulated PBMC; assay type: cell-based, human; details: Homo sapiens, PBMC, read-out: Shedding inhibition Non-stim.
Procedure: PBMC from de-identified healthy donors were obtained with informed consent from the Department of Transfusion Medicine, National Institutes of Health under Biological reagent Registry RD-14-IX-12 approved by NIH biological safety board. CD8-depleted PBMCs, either stimulated or non-stimulated with 10 μg/mL phytohaemagglutinin (PHA) or anti-CD3 antibody (with or without conjugated beads), were plated at 2×10^6 cells/ml in 48 well plates in RPMI 1640 + 10%FBS (R10) to a final volume of 1 mL in each well. IL-2 was added at a final concentration of 20 U/mL. CD3 antibody okt3 was used at ~0.2 μg/mL final concentration. […] Supernatants were collected and assessed using either the CD62L or TNF-α Duo Set ELISA kit according to manufacturer's instructions (R&D Systems, Inc.). The viability of cells treated with compounds was assessed by acridine orange / propidiom iodide (AO/PI Logosbio catalog F23001) staining using Luna-FL cell counter following the manufacture's instruction.^2 […] Supplemental Figure 1. CD62L shedding from unstimulated PBMC. A) Soluble CD62L in the supernatant of unstimulated PBMC was measured By ELISA (R&D systems, Inc) after 24 hour treatment in the presence of 10 μM of […]), aminopeptidase (AP) protease inhibitors, respectively, or their untreated controls. Statistics were calculated using unpaired parametric student t-test between individual treatment and DMSO control. […] B) Viability of PBMC treated with 10-500 μM of MMP inhibitors for 24hours. […] Untreated DMSO AEBSF 3,4-Dichloroisocouman Granzyme B Inhibitor II Granzyme B Inhibitor IV Aprotinin […] 3 4 CD62L shedding from unstimulated PBMC Soluble CD62L (ng/ml) Inhibitor Class […] GI254023X 10 GI254023X 100 […] GI254023X 1000 GW280264X 10 GW280264X 100 […] GW280264X 1000 Marimastat 10 Marimastat 100 Marimastat 250 […]

recombinant ADAM10 = biological target: T1, recombinant ADAM10 (Homo sapiens, UniProt O14672); test: Kinetic cleavage of fluorogenic TNF-α peptide ES003 by recombinant ADAM10; assay type: biochemical; details: for inhibition of ADAM10 cleavage of ES003: 2 μM compound; for Ki: ES003 substrate, 4-h time point, non-linear regression, read-out: Inhibition constant Ki ADAM10
T1 construct: purchased R&D systems, Inc
T1 sequence (O14672 214-748): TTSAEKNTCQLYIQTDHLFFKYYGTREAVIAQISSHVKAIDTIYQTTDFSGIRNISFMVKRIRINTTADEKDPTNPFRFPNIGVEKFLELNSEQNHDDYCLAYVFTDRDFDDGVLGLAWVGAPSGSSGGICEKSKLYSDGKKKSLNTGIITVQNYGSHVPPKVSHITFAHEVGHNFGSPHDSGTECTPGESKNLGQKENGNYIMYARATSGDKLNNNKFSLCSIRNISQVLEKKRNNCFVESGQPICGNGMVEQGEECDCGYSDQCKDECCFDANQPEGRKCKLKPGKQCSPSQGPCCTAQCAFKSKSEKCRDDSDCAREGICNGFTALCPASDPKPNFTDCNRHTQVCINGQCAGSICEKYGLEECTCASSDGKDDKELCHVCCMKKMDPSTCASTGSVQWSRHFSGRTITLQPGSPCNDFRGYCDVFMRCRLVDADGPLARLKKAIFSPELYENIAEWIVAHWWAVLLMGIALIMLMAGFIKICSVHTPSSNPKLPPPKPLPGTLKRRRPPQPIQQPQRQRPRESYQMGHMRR
Description: A fluorescence based enzymatic assay was used to measure the cleavage of fluorogenic TNF-α and L-selectin (CD62L) peptides by either recombinant ADAMs or PBMC from healthy donors. The fluorogenic substrate, synthesized by Biomatik^3, was a Dabcyl (4-(4-dimethylaminophenylazo)benzoyl)- and Edans (5-[(2-aminoethyl)amino]naphthalene-1-sulfonic acid)- conjugated 12 amino acid peptide: Dabcyl-[…]-Edans that corresponds to the extracellular membrane proximal region of CD62L. […] The cleavage was measured in a kinetic assay every 3 min for 4 h in black 96-well plates using a Synergy_h1 fluorescent plate reader (BioTek) with 340 nm excitation and 490 nm emission wavelengths. […] PBMC were stimulated with anti-CD3 antibody for 2–4 days as described above.
96-well plate with data recorded every 3 minutes for 4 hours using a Synergy_h1 fluorescent plate reader. Each enzymatic reaction contained 50 -200 ng
Figure 2B and 2C bar diagrams are generated using the
data points at 4 hour time point of the enzymatic cleavages.

PBMC = PBMC viability (AO/PI staining); assay type: cell-based, human; details: for impact on cell viabilities in HIV-1BAL infection: PBMC post infection with HIV-1BAL; for PBMC viability at 24hr post treatment: 10-500 μM of MMP inhibitors for 24hours
Procedure: PBMC from de-identified healthy donors were obtained with informed consent from the Department of Transfusion Medicine, National Institutes of Health under Biological reagent Registry RD-14-IX-12 approved by NIH biological safety board. CD8-depleted PBMCs, either stimulated or non-stimulated with 10 μg/mL phytohaemagglutinin (PHA) or anti-CD3 antibody (with or without conjugated beads), were plated at 2×10^6 cells/ml in 48 well plates in RPMI 1640 + 10%FBS (R10) to a final volume of 1 mL in each well. IL-2 was added at a final concentration of 20 U/mL. CD3 antibody okt3 was used at ~0.2 μg/mL final concentration. Compounds were prepared in appropriate solvents according to the manufacturer’s instructions, diluted to working concentrations using RPMI 1640 + 10%FBS (R10), and added to the cell cultures for 6–24 h for CD62L shedding, and 48 h for TNF-α release. Supernatants were collected and assessed using either the CD62L or TNF-α Duo Set ELISA kit according to manufacturer’s instructions (R&D Systems, Inc.). The viability of cells treated with compounds was assessed by acridine orange / propidiom iodide (AO/PI Logosbio catalog F23001) staining using Luna-FL cell counter following the manufacture’s instruction.^2

[3] = 10 μM compound, non-stimulated cells, ELISA

| SMILES | inhibition at 10 µM (CD62L shedding [1]) [%] | effect on CD62L shedding / soluble CD62L (CD62L shedding [1]) | inhibition at 10 µM (CD62L shedding [2]; [3]) [%] | concentrations inhibiting ADAM10 enzymatic activity (recombinant ADAM10) [nM] | inhibition of ADAM10 cleavage of ES003 (recombinant ADAM10) | Ki (recombinant ADAM10) [nM] | impact on cell viabilities in HIV-1BAL infection (PBMC) | effect on 3,4-dichloroisocouman enhanced CD62L shedding (CD62L shedding [1]; stimulated PBMC) | inhibition at 10 µM (CD62L shedding [2]) [%] | PBMC viability at 24hr post treatment (PBMC) |
| --- | --- | --- | --- | --- | --- | --- | --- | --- | --- | --- |
| CC1(C)SCCN(S(=O)(=O)c2ccc(Oc3ccncc3)cc2)[C@H]1C(=O)NO [prinomastat] | > 50 | suppressed CD62L shedding | > 50 | 20 to 50 | inhibited both ADAM10 and 17 | 2 ± 0.4 | without significant impact to cell viabilities |  |  |  |
| CNC(=O)[C@H](Cc1ccccc1)NC(=O)[C@H](CC(C)C)[C@H](CSc1cccs1)C(=O)NO [BB-94, Batimastat] | > 50 | suppressed CD62L shedding; also recorded: inhibited |  | 20 to 50 | inhibited both ADAM10 and 17; also recorded: indistinguishable from that of ES003-only curve without the enzyme |  | without significant impact to cell viabilities | blocked | > 50 | No significant decrease in the viability |
| CNC(=O)[C@@H](NC(=O)[C@H](CCCc1ccccc1)[C@H](C)N(O)C=O)C(C)(C)C [GI254023X] | > 50 | suppressed CD62L shedding | 20 to 50 |  | preferentially inhibited the enzymatic activity of ADAM10 compared to ADAM17 | 11 ± 9 |  |  |  | No significant decrease in the viability |
